Data: patent US5405843A, “Quinoline derivatives” (Mitsui Toatsu Chemicals, Incorporated, priority 1988, dated 1995)

Tests used:
[1] = test system: Vincristine-resistant strain P388/VCR cells of mouse leukemia P388 cells; assay: Potentiating effect on vincristine in mice having vincristine-resistant mouse leukemia (survival); type: in vivo, mouse (female CDFI mice); conditions: peritoneal, once a day for 5 days; for T/C (rate of life prolongation): control = 100
[2] = test system: Adriamycin resistant strain 2780 AD cells of human ovarian cancer A2780 cells; assay: Potentiating effect on incorporation of 3H-vincristine into adriamycin-resistant cancer cells; type: cell-based; conditions: 20 nM 3H-vincristine; for activity at 1 µg/mL / activity at 10 µg/mL: Homo sapiens, 2780AD, 2 h, control = 100, read-out: 3H-vincristine accumulation; for activity at 10 µg/mL: compound 10 μg/ml
Method: Potentiating Effect of the Compounds on Incorporation of Anticancer Drugs into Drug-resistant Cancer Cells
Adriamycin resistant strain 2780 AD cells of human ovarian cancer A2780 cells (A. M. Rogan et al., Science 224, 994-996, 1984) were suspended at a concentration of 1×10^6 /ml in RPMI-1640 medium supplemented with 5% fetal calf serum, and 1 ml of the cancer cell suspension was dispensed into each well of a multi-well culture plate (24 wells, […] in diameter) and then incubated at 37° C. in an atmosphere of 5% CO2. After 24 hours incubation, the medium in each well was replaced by 0.5 ml of RPMI-1640 medium supplemented containing 20 nM ^3 H-vincristine (1×10^4 dpm/pmol), 5% fetal calf serum and 10 mM Hepes buffer. Five microliters of a solution of the compound to be tested, which had been dissolved in DMSO and diluted with […] (at a concentration of 1.0 microgram/ml or 10.0 micrograms/ml), was added to each well and the incubation was continued at 37° C. in 5% CO2 for 2 hours. The resultant cells were washed in cold saline-phosphate buffer. In each well was added 0.5 ml of 0.2N NaOH, and the resulting cell suspension in each well was independently transferred into a vial and then heated in a water bath at 56° C. for 30-60 minutes to dissolve the cells. After adding 4 ml of acid aquazole 2, the amount of ^3 H-vincristine incorporated into the cells was determined by a fluid scintillation counter.

[3] = compound 30 mg/kg + vincristine 100 ug/kg
[4] = compound 10 mg/kg + vincristine 100 ug/kg

Row | SMILES | Average surviving period [1, 3] [days] | T/C (rate of life prolongation) [1, 3] [%] | activity at 1 µg/mL ([2]; compound 1 μg/ml) [%] | activity at 10 µg/mL [2] [%] | Average surviving period [1, 4] [days] | T/C (rate of life prolongation) [1, 4] [%] | 3H-vincristine accumulation ([2]; compound 1 μg/ml, 2 hours, control = 100, 120 min) [%]
1 | OC(COc1cccc2ncccc12)CN1CCC(=C2c3ccccc3C=Cc3ccccc32)CC1 (stereo not shown) [Example 77, 5-[3-(4-(Dibenzosuberene-5-ylidene)piperidine-1-yl)2-hydroxypropoxy]quinoline] | 13.8 ± 1.2 | 129 |  |  |  |  | 
2 | c1ccc(C(c2ccccc2)N2CCN(CCCOc3cccc4ncccc34)CC2)cc1 [Example 32, 5-[3-(4-Diphenylmethylpiperazine-1-yl)propoxy]quinoline] | 11.3 ± 0.4 | 110 | 816 |  |  |  | 
3 | Cc1cc(C(F)(F)F)nc2cccc(OCC(O)CN3CCN(C(=O)C(c4ccccc4)c4ccccc4)CC3)c12 (stereo not drawn) [Example 55, 2-Trifluoromethyl-4-methyl-5-[3-(4-(α,α-diphenylacetyl)piperazine-1-yl)-2-hydroxypropoxy]quinoline] | 12.7 ± 0.3 | 120 | 452 | 756 |  |  | 
4 | Cc1cc(C)c2c(OCC(O)CN3CCN(C(=O)N4c5ccccc5CCc5ccccc54)CC3)cccc2n1 (stereo not shown) [Example 61, 2,4-Dimethyl-5-[3-(4-(iminodibenzyl-5-carbonyl)piperazine-1-yl)-2-hydroxypropoxy]quinoline] | 11.5 ± 0.3 | 108 | 519 | 602 |  |  | 
5 | OC(COc1cccc2ncccc12)CN1CCCN(C(c2ccccc2)c2ccccc2)CC1 (stereo not shown) [Example 4, 5-[3-(4-Diphenylmethylhomopiperazine-1-yl)-2-hydroxypropoxy]quinoline] | 11.8 ± 0.4 | 107 | 438 | 770 |  |  | 
6 | Cc1cc(C)c2c(OCC(O)CN3CCN(C(c4ccccc4)c4ccccc4)CC3)cccc2n1 (stereo not shown) [Example 5, 2,4-Dimethyl-5-[3-(4-diphenylmethylpiperazine-1-yl)-2-hydroxypropoxy]quinoline] | 12.8 ± 0.8 | 124 | 732 |  |  |  | 
7 | OC(COc1cccc2ncccc12)CN1CCN(C(c2ccccc2)c2ccc(Cl)cc2)CC1 (stereo not shown) [Example 58, 5-(3-[4-((4-Chlorophenyl)-phenylmethyl)piperazine-1-yl]-2-hydroxypropoxy)quinoline] | 13.8 ± 1.8 | 130 | 619 | 843 |  |  | 
8 | OC(COc1cccc2ncccc12)CN1CCN(C(c2ccc(F)cc2)c2ccc(F)cc2)CC1 (stereo not shown) [Example 57, 5-(3-[4-(Bis(4-fluorophenyl)methyl)piperazine-1-yl]-2-hydroxypropoxy)quinoline] | 13.1 ± 0.4 | 124 | 572 | 732 |  |  | 
9 | O=C(C(c1ccccc1)c1ccccc1)N1CCN(CC(O)COc2cccc3ncccc23)CC1 (stereo not shown) [Example 16, 5-[3-(4-(2,2-Diphenylacetyl)piperazine-1-yl)-2-hydroxypropoxy]quinoline] | 13.9 ± 1.4 | 132 | 850 | 982 |  |  | 
10 | OC(COc1cccc2ncccc12)CN1CCN(C2c3ccccc3COc3ccccc32)CC1 (stereo not shown) [Example 6, 5-[3-(4-(6,11-Dihydrodibenzo[b,e]oxepine-11-yl)piperazine-1-yl)-2-hydroxypropoxy]quinoline] | 13.4 ± 0.7 | 128 |  |  |  |  | 
11 | COc1ccc2c(OCC(O)CN3CCN(C(=O)C(c4ccccc4)c4ccccc4)CC3)cccc2n1 (stereo not shown) [Example 8, 5-[3-(4-(2,2-Diphenylacetyl)piperazine-1-yl) -2-hydroxypropoxy]-2-methoxyquinoline] | 12.2 ± 0.6 | 115 | 394 | 863 |  |  | 
12 | OC(COc1cccc2ncccc12)CN1CCC(=C(c2ccccc2)c2ccccc2)CC1 (stereo not shown) [Example 13, 5-[3-(4-(Diphenylmethylene)piperidine-1-yl)-2-hydroxypropoxy]quinoline] | 15.3 ± 0.5 | 139 | 517 | 805 |  |  | 
13 | OC(COc1cccc2cnccc12)CN1CCN(C2c3ccccc3CCc3ccccc32)CC1 (stereo not shown) [Example 44, 5-[3-(4-(Dibenzosuberane-5-yl)piperazine-1-yl)-2-hydroxypropoxy]isoquinoline] | 13.8 ± 1.0 | 123 | 636 | 934 | 12.5 ± 0.0 | 112 | 
14 | COc1ccc2c(OCC(O)CN3CCN(C4c5ccccc5CCc5ccccc54)CC3)cccc2n1 (stereo not shown) [Example 9, 5-[3-(4-(Dibenzosuberane-5-yl)piperazine-1-yl)-2-hydroxypropoxy]-2-methoxyquinoline] | 14.2 ± 0.6 | 134 | 721 | 947 |  |  | 
15 | OC(COc1cccc2ncccc12)CN1CCC(=C2c3ccccc3CCc3ccccc32)CC1 (stereo not shown) [Example 80, 5-[3-(4-(Dibenzosuberane-5-ylidene)piperidine-1-yl)-2-hydroxypropoxy]quinoline] | 14.3 ± 0.6 | 134 | 942 |  |  |  | 
16 | OC(CNc1cccc2ncccc12)CN1CCN(C(c2ccccc2)c2ccccc2)CC1 (stereo not shown) [Example 27, 5-[3-(4-Diphenylmethylpiperazine-1-yl)-2-hydroxypropylamino]quinoline] | 12.3 ± 0.3 | 119 |  |  |  |  | 
17 | OC(CSc1cccc2ncccc12)CN1CCN(C(c2ccccc2)c2ccccc2)CC1 (stereo not shown) [Example 74, 5-[3-(4-Diphenylmethylpiperazine-1-yl)-2-hydroxypropylthio]qunoline] |  |  |  |  |  |  | 626
18 | OC(CNCCNC1c2ccccc2CCc2ccccc21)COc1cccc2ncccc12 (stereo not shown) [Example 62, 5-[3-(N'-(Dibenzosuberane-5-yl)ethylenediamino)-2-hydroxypropoxy]quinoline] |  |  | 525 |  |  |  | 
19 | Cc1cc(C(F)(F)F)nc2cccc(OCC(O)CN3CCN(C4c5ccccc5CCc5ccccc54)CC3)c12 (stereo not shown) [Example 54, 2-Trifluoromethyl-4-methyl-5-[3-(4-(dibenzosuberane-5-yl)piperazine-1-yl)-2-hydroxypropoxy]quinoline] |  |  | 253 | 777 |  |  | 
20 | OC(COc1cccc2ncccc12)CN1CCC(C(c2ccccc2)c2ccccc2)CC1 (stereo not shown) [Example 14, 5-[3-(4-(Diphenylmethyl)piperidine-1-yl)-2-hydroxypropoxy]quinoline] |  |  | 119 | 871 |  |  | 
21 | CSc1ccc2c(OCC(O)CN3CCN(C(=O)C(c4ccccc4)c4ccccc4)CC3)cccc2n1 (stereo not drawn) [Example 65, 2-Methylthio-5-[3-(4-(α,α-diphenylacetyl)piperazine-1-yl)-2-hydroxypnopoxy]quinoline] |  |  | 297 | 985 |  |  | 
22 | OC(COc1cccc2ccncc12)CN1CCN(C(c2ccccc2)c2ccccc2)CC1 (stereo not shown) [Example 47, 8-[3-(4-Diphenylmethylpiperazine-1-yl)-2-hydroxypropoxy]isoquinoline] |  |  | 322 | 879 |  |  | 
